Measured values taken from patent publication US11058734B2, “Probiotic strains having cholesterol absorbing capacity, methods and uses thereof” (BIOSEARCH, S.A., priority 2014, dated 2021).

System: HT-29 enterocytes
Test: Fluoresterol absorption by HT-29 enterocytes (flow cytometry)
Format: cell-based
Settings: Homo sapiens, Ezetimibe at maximum effective concentration 300 μM
Protocol: HT-29 enterocytes were obtained from the CIC of the University of Granada (Spain) and cultured in DMEM medium supplemented with a 10% (v/v) of FBS, non-essential amino acids and 2 mM L-glutamine; at 37° C. and 5% (v/v) CO2. Cultures for fluoresterol absorption were grown for 14 days using 96-well plates, incubated for 3-4 h with micelles of fluoresterol and bacterial suspensions at 5·10^8 bacteria/mL, or […] Ezetimibe (MSD-SP Ltd) as positive control. Before fluorocytometric assays, HT-29 cultures were disagreggated by trypsin treatment, the medium and free micelles of fluoresterol removed by centrifugation and enterocytes suspended in PBS buffer.
Micelles of fluoresterol, containing 10 mM sodium taurocholate, 6 mM phosphatidylcholine and 0.2 mM fluoresterol were prepared as described by Sparrow et al. (Sparrow et al., 1999, J Lipid Res 40:1747-57). Fluoresterol absorption by bacteria was analyzed incubating bacterial suspensions (5·10^8 bacteria/mL) with micelles (0.1 mg/mL fluoresterol) in PBS buffer at 37° C. […] Finally, bacteria associated fluorescence was determined in a Tecan Genius microplate reader (485 nm excitation, 535 nm emission filters) or in a Beckton Dickinson FACScalibur flow cytometer. […] Absorbed fluoresterol was quantified based on the data of fluorescence (λex: 488 nm; λem: 530 nm) per cell obtained from 2,000 events in each sample. […]

Work on `O=C1[C@H](CC[C@H](O)c2ccc(F)cc2)[C@@H](c2ccc(O)cc2)N1c1ccc(F)cc1` [Ezetimibe] yielded an inhibition at 300 µM of 40%.
